US20230391768A2, “IMIDAZOPYRIDINE DERIVATIVES AND AZA-IMIDAZOPYRIDINE DERIVATIVES AS JANUS KINASE 2 INHIBITORS AND USES THEREOF” (Dana-Farber Cancer Institute, Inc., priority 2018, published 2023)

Legend:
Assay in all cases: KINOMEscan
Assay type in all cases: binding
Conditions in all cases: read-out: percent of control
[1] = target: ABL1(F317L)-phosphorylated (Homo sapiens (Human), UniProt P00519, F317L)
Description: (§1) In vitro profiling of Compound I-2 (1 μM) was performed using the DiscoveRx KINOMEscan® platform.

MEK2 = MEK2 (Homo sapiens (Human), UniProt P36507)
Chain of MEK2 (P36507 whole entry): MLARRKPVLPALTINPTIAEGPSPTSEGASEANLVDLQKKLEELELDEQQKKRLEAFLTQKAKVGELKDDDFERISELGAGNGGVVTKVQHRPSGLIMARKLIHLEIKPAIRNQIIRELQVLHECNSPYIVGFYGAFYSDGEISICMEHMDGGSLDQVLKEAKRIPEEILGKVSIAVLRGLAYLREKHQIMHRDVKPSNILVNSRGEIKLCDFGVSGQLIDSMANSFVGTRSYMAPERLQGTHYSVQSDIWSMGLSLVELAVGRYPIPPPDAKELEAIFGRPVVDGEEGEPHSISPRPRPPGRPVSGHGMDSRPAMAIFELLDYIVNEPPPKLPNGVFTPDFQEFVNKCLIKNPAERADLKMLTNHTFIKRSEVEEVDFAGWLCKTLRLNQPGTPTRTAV
Description: as §1

PAK1 = PAK1 (Homo sapiens (Human), UniProt Q13153)
Description: as §1

CDC2L2 = CDC2L2 (Homo sapiens (Human), UniProt Q9UQ88)
Description: as §1

EGFR(S752-I759del) = EGFR(S752-I759del) (Homo sapiens (Human), UniProt P00533, DEL752-759)
Description: as §1

PIK3CB = PIK3CB (Homo sapiens (Human), UniProt P42338)
Description: as §1

EIF2AK1 = EIF2AK1 (Homo sapiens (Human), UniProt Q9BQI3)
Chain of EIF2AK1 (Q9BQI3 whole entry): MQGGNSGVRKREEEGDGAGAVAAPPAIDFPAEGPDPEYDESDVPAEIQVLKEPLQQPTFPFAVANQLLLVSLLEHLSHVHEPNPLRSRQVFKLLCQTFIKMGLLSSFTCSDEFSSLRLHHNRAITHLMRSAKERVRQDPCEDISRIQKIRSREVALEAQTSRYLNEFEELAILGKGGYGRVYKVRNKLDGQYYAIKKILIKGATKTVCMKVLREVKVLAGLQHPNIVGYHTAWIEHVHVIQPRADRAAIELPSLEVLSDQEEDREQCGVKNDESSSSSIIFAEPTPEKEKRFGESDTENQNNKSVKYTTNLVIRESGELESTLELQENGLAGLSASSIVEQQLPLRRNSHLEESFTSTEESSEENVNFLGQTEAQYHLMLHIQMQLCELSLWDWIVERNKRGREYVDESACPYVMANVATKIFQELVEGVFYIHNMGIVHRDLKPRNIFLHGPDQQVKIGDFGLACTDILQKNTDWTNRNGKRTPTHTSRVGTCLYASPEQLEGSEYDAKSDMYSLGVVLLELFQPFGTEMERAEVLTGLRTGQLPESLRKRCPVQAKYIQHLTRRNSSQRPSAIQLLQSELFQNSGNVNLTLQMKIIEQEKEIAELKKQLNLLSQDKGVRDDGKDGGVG
Description: as §1

[2] = target: RPS6KA4 (Kin.Dom.2-C-terminal) (Homo sapiens (Human), UniProt O75676)
Chain of RPS6KA4 (Kin.Dom.2-C-terminal) (O75676 411-674): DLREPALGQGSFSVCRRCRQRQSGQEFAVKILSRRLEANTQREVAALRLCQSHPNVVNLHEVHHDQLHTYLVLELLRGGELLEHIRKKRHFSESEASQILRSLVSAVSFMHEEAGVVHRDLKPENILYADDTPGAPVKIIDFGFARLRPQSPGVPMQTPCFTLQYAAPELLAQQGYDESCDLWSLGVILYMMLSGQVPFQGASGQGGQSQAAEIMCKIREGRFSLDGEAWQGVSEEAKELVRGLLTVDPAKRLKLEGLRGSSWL
Description: as §1

CDK2 = CDK2 (Homo sapiens (Human), UniProt P24941)
Description: as §1

PRKG1 = PRKG1 (Homo sapiens (Human), UniProt Q13976)
Description: as §1

[3] = target: JAK2(JH1domain-catalytic (Homo sapiens (Human), UniProt O60674))
Description: as §1

FGFR1 = FGFR1 (Homo sapiens (Human), UniProt P11362)
Description: as §1

FGFR2 = FGFR2 (Homo sapiens (Human), UniProt P21802)
Description: as §1

TXK = TXK (Homo sapiens (Human), UniProt P42681)
Description: as §1

ULK2 = ULK2 (Homo sapiens (Human), UniProt Q8IYT8)
Chain of ULK2 (Q8IYT8 whole entry): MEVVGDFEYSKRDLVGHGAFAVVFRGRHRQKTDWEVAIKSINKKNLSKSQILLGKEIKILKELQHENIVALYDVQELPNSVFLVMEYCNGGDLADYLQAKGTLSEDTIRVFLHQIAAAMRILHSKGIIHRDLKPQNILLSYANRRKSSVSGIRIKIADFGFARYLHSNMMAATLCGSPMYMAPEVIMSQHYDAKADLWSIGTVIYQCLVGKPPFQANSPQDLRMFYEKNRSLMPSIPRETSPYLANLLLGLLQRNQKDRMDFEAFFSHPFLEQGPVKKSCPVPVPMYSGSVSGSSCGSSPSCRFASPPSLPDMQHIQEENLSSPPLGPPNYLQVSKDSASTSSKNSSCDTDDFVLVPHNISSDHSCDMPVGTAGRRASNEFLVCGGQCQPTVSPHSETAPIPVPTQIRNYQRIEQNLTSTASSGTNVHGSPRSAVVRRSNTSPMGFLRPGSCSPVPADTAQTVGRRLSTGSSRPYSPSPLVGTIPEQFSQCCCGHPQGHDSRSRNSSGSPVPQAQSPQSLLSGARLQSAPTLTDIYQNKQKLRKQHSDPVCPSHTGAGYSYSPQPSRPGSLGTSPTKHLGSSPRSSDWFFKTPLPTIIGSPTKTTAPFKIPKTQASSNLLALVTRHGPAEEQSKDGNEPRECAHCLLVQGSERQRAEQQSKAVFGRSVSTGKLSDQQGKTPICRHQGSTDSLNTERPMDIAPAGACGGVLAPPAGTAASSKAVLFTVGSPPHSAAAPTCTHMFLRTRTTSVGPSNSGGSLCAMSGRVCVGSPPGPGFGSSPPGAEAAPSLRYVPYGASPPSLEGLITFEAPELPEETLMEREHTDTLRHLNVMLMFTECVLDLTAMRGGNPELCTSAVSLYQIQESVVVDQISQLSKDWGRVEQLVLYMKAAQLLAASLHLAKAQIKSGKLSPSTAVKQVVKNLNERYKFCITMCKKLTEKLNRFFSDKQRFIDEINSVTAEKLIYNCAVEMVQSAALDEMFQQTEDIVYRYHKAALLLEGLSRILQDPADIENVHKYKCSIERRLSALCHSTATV
Description: as §1

PRKG2 = PRKG2 (Homo sapiens (Human), UniProt Q13237)
Description: as §1

BRK = BRK (Homo sapiens (Human), UniProt Q13882)
Chain of BRK (Q13882 whole entry): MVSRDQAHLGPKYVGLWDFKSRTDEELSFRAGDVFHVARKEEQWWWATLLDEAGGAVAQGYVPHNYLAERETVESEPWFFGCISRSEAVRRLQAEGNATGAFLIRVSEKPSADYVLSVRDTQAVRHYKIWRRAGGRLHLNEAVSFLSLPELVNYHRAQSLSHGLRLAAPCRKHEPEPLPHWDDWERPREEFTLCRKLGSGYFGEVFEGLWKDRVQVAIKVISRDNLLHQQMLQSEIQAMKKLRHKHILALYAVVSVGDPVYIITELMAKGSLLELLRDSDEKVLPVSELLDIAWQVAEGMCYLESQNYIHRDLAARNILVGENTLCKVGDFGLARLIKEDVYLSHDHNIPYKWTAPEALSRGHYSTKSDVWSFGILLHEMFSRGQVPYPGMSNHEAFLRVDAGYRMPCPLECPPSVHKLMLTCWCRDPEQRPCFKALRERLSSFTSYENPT
Description: as §1

PFTAIRE2 = PFTAIRE2 (Homo sapiens (Human), UniProt Q96Q40)
Description: as §1

CAMK2A = CAMK2A (Homo sapiens (Human), UniProt Q9UQM7)
Description: as §1

FRK = FRK (Homo sapiens (Human), UniProt P42685)
Chain of FRK (P42685 whole entry): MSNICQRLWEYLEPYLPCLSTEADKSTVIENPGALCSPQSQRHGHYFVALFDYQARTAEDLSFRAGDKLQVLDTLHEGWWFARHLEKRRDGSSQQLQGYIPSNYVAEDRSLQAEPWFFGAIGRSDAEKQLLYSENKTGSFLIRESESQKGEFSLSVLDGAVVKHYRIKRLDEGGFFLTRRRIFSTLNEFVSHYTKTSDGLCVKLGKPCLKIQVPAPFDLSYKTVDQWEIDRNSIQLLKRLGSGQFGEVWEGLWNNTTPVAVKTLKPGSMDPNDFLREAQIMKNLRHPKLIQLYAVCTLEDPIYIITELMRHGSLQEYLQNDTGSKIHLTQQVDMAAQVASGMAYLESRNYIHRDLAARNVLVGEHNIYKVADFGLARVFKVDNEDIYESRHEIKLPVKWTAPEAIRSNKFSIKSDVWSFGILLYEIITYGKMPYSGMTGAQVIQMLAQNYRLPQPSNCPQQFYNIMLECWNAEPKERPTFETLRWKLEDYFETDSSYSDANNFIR
Description: as §1

ACVR1 = ACVR1 (Homo sapiens (Human), UniProt Q04771)
Description: as §1

DYRK2 = DYRK2 (Homo sapiens (Human), UniProt Q92630)
Description: as §1

FAK = FAK (Homo sapiens (Human), UniProt Q05397)
Description: as §1

QSK = QSK (Homo sapiens (Human), UniProt Q9Y2K2)
Description: as §1

TSSK1B = TSSK1B (Homo sapiens (Human), UniProt Q9BXA7)
Description: as §1

EGFR(G719C) = EGFR(G719C) (Homo sapiens (Human), UniProt P00533, G719C)
Description: as §1

LZK = LZK (Homo sapiens (Human), UniProt O43283)
Description: as §1

CDK3 = CDK3 (Homo sapiens (Human), UniProt Q00526)
Chain of CDK3 (Q00526 whole entry): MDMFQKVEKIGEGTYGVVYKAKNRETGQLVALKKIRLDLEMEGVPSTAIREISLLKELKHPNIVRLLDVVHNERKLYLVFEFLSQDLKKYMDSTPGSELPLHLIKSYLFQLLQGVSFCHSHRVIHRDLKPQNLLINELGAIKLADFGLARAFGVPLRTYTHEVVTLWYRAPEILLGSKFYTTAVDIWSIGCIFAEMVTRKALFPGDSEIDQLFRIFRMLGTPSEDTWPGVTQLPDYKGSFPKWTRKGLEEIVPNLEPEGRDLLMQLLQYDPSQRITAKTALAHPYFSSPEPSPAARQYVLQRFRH
Description: as §1

PCTK2 = PCTK2 (Homo sapiens (Human), UniProt Q00537)
Chain of PCTK2 (Q00537 whole entry): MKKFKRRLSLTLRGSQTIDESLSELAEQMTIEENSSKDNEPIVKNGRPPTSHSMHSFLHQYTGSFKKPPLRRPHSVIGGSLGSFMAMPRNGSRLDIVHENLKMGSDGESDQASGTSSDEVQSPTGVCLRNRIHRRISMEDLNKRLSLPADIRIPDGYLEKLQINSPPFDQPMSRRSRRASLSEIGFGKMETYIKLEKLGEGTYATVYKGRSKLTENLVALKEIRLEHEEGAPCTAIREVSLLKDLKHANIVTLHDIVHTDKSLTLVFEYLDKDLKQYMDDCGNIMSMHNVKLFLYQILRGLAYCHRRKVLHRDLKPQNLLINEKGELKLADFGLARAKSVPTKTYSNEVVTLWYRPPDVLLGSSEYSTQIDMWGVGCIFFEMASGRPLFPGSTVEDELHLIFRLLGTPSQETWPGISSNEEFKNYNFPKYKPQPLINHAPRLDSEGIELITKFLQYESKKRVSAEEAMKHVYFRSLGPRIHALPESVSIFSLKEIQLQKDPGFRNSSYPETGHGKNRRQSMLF
Description: as §1

MAP3K4 = MAP3K4 (Homo sapiens (Human), UniProt Q9Y6R4)
Description: as §1

PRKD1 = PRKD1 (Homo sapiens (Human), UniProt Q15139)
Description: as §1

p38-gamma = p38-gamma (Homo sapiens (Human), UniProt P53778)
Description: as §1

CLK1 = CLK1 (Homo sapiens (Human), UniProt P49759)
Chain of CLK1 (P49759 whole entry): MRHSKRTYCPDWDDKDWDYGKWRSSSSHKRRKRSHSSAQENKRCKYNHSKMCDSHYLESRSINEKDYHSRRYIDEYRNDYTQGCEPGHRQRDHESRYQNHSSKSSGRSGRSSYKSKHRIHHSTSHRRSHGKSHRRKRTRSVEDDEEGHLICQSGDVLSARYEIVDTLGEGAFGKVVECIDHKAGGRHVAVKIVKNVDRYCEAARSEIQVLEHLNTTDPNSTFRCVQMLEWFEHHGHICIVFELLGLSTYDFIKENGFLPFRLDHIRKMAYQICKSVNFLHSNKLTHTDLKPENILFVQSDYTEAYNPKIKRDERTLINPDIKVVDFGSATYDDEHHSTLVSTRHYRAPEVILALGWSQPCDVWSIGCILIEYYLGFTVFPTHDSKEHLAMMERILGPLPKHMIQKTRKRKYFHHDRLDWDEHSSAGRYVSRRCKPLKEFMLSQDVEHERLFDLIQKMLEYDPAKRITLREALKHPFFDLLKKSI
Description: as §1

DYRKIA = DYRKIA (Homo sapiens (Human), UniProt Q13627)
Description: as §1

SNRK = SNRK (Homo sapiens (Human), UniProt Q9NRH2)
Description: as §1

WNK2 = WNK2 (Homo sapiens (Human), UniProt Q9Y3S1)
Description: as §1

NEK9 = NEK9 (Homo sapiens (Human), UniProt Q8TD19)
Description: as §1

LKB1 = LKB1 (Homo sapiens (Human), UniProt Q15831)
Description: as §1

MAPKAPK2 = MAPKAPK2 (Homo sapiens (Human), UniProt P49137)
Chain of MAPKAPK2 (P49137 whole entry): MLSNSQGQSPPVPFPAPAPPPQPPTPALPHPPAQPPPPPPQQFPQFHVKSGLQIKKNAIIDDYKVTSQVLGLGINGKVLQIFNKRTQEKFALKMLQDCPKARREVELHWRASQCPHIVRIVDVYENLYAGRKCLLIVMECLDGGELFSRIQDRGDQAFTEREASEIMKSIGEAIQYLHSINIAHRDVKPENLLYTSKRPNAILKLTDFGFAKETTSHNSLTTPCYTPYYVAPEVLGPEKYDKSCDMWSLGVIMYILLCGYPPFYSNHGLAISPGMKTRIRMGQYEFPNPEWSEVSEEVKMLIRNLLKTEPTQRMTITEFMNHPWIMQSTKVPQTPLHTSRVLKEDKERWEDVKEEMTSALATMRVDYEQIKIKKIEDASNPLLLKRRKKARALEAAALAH
Description: as §1

SMILES	remaining binding at 1 µM [1] [%]	remaining binding at 1 µM (MEK2) [%]	remaining binding at 1 µM (PAK1) [%]	remaining binding at 1 µM (CDC2L2) [%]	remaining binding at 1 µM (EGFR(S752-I759del)) [%]	remaining binding at 1 µM (PIK3CB) [%]	remaining binding at 1 µM (EIF2AK1) [%]	remaining binding at 1 µM [2] [%]	remaining binding at 1 µM (CDK2) [%]	remaining binding at 1 µM (PRKG1) [%]	remaining binding at 1 µM [3] [%]	remaining binding at 1 µM (FGFR1) [%]	remaining binding at 1 µM (FGFR2) [%]	remaining binding at 1 µM (TXK) [%]	remaining binding at 1 µM (ULK2) [%]	remaining binding at 1 µM (PRKG2) [%]	remaining binding at 1 µM (BRK) [%]	remaining binding at 1 µM (PFTAIRE2) [%]	remaining binding at 1 µM (CAMK2A) [%]	remaining binding at 1 µM (FRK) [%]	further results
CCN1CCN(Cc2cc(NC(=O)c3ccc(C)c(-c4ccc5nc(NC(=O)C6CC6)cn5n4)c3)cc(C(F)(F)F)c2)CC1 [Compound I-2, 3-(2-(cyclopropanecarboxamido)imidazo[1,2-b]pyridazin-6-yl)-N-(3-((4-ethylpiperazin-1-yl)methyl)-5-(trifluoromethyl)phenyl)-4-methylbenzamide]	1.1	95	81	27	80	100	100	79	7	100	7.9	77	67	16	100	100	100	0.9	100	3.9	remaining binding at 1 µM (ACVR1): 100%; remaining binding at 1 µM (DYRK2): 95%; remaining binding at 1 µM (FAK): 1.9%; remaining binding at 1 µM (QSK): 92%; remaining binding at 1 µM (TSSK1B): 96%; remaining binding at 1 µM (EGFR(G719C)): 53%; remaining binding at 1 µM (LZK): 48%; remaining binding at 1 µM (CDK3): 5.7%; remaining binding at 1 µM (PCTK2): 1.8%; remaining binding at 1 µM (MAP3K4): 89%; remaining binding at 1 µM (PRKD1): 93%; remaining binding at 1 µM (p38-gamma): 0%; remaining binding at 1 µM (CLK1): 7.9%; remaining binding at 1 µM (DYRKIA): 92%; remaining binding at 1 µM (SNRK): 84%; remaining binding at 1 µM (WNK2): 72%; remaining binding at 1 µM (NEK9): 100%; remaining binding at 1 µM (LKB1): 73%; remaining binding at 1 µM (MAPKAPK2): 72%
CCN1CCN(Cc2cc(NC(=O)c3ccc(C)c(-c4ccc5nc(NC(=O)C6CC6)cn5c4)c3)cc(C(F)(F)F)c2)CC1 [Compound I-6, 3-(2-(cyclopropanecarboxamido)imidazo[1,2-a]pyridin-6-yl)-N-(3-((4-ethylpiperazin-1-yl)methyl)-5-(trifluoromethyl)phenyl)-4-methylbenzamide]	1.3	95	78	34	65	94	92	100	60	87	6.5	57	57	19	100	99	91	3.6	100	3.2	remaining binding at 1 µM (ACVR1): 100%; remaining binding at 1 µM (DYRK2): 92%; remaining binding at 1 µM (FAK): 7.9%; remaining binding at 1 µM (QSK): 83%; remaining binding at 1 µM (TSSK1B): 76%; remaining binding at 1 µM (EGFR(G719C)): 46%; remaining binding at 1 µM (LZK): 100%; remaining binding at 1 µM (CDK3): 40%; remaining binding at 1 µM (PCTK2): 1.3%; remaining binding at 1 µM (MAP3K4): 81%; remaining binding at 1 µM (PRKD1): 87%; remaining binding at 1 µM (p38-gamma): 9.4%; remaining binding at 1 µM (CLK1): 20%; remaining binding at 1 µM (DYRKIA): 100%; remaining binding at 1 µM (SNRK): 99%; remaining binding at 1 µM (WNK2): 57%; remaining binding at 1 µM (NEK9): 92%; remaining binding at 1 µM (LKB1): 100%; remaining binding at 1 µM (MAPKAPK2): 96%
